Reference: patent US20080227710A1, “Use of Conjugates of Doxorubicin with Lactosaminated Albumin” (priority 2005, published 2008)

Assay: DOXO concentrations in HCCs, heart and intestine of rats with DENA-induced HCCs
Format: in vivo, rat
Conditions: 4 h after i.v. injection, DOXO measured as free drug, mean ± standard error
Description: HCCs were induced by diethyInitrosamine (DENA) given in the drinking water (100 mg/l) for 8 weeks. […] Compounds were injected in the dorsal vein of penis, in a volume of 10 μl/10 g body weight, under isoflurane anaesthesia. For each compound four rats were used. Four hours after the injection the animals were killed under isoflurane anaesthesia. Organs were rapidly removed and frozen and neoplastic nodules were accurately dissected from the surrounding liver. A part of each tumor nodule was frozen; the other part was fixed in 10% formalin and processed for histology. Samples of frozen organs and nodules were used for radioactivity count and determination of DOXO levels. DOXO was measured according to Bots A M, et al. (Analysis of adriamycin . . . J Chromatogr 1983; 272: 421-427), with modifications (Di Stefano G, et al. Doxorubicin coupled to lactosaminated . . . Dig Liver Dis 2003; 35: 428-433).

- DOXO concentration, nmoles DOXO/g, Heart (heart): 4.7 ± 0.3 nmoles DOXO/g
- DOXO concentration, nmoles DOXO/g, Intestine (intestine): 4.2 ± 0.6 nmoles DOXO/g
- DOXO concentration, nmoles DOXO/g, MD HCCs (moderately differentiated HCCs): 3.1 ± 0.4 nmoles DOXO/g
- DOXO concentration, nmoles DOXO/g, PD HCCs (poorly differentiated HCCs): 3.6 ± 0.4 nmoles DOXO/g
- DOXO concentration, nmoles DOXO/g, WD HCCs (well differentiated HCCs): 3.4 ± 0.6 nmoles DOXO/g
SMILES: COc1cccc2c1C(=O)c1c(O)c3c(c(O)c1C2=O)C[C@@](O)(C(=O)CO)C[C@@H]3O[C@H]1C[C@H](N)[C@H](O)[C@H](C)O1 [DOXO, doxorubicin]
